The values that follow come from patent US20250059162A1, “MULTI-PROTEIN DEGRADATION AGENT HAVING IMIDE SKELETON” (SUZHOU KINTOR PHARMACEUTICALS, INC., priority 2021, published 2025).

Holding throughout (type): cell-based
The subject of one test is HL60 cells. In words: Anti-proliferation on HL60 cells (CellTiter-Glo, 3 days). The conditions noted are these: Homo sapiens, HL-60, 72 h, 3 days incubation, CTG luminescence, IC50 by XLfit, read-out: HL60 cells Proliferation inhibitory activity. The method in brief: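 Log-phase cells were plated at 20000 cells/well and treated with compound dilutions in RPMI-1640 for 3 days, with 0.1% DMSO controls. Proliferation was read by CellTiter-Glo luminescence. IC50 was fitted from the inhibition rates.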
For orientation: Cellular ATP, detected with luciferase, serves as a proxy for viable cell number.

Another test concerns the target T1, c-Myc protein (Homo sapiens, UniProt P01106).
T1 construct: degradation of myc and GSPT1 proteins in HL60 cells; endogenous in cells; host or cells: HL60
In words: c-Myc protein degradation in HL60 cells (Western blot). The conditions noted are these: for remaining activity at 0.01 µM: HL-60, compound at 10 nM, 24 h, gray value relative to Ctrl (DMSO), read-out: Remaining amount of c-Myc protein (@10 nM/Ctrl). Here is the method: (§1) HL60 cells in the exponential growth phase were digested and plated into a 6-well plate at 1×10^6 cells per well. The cell culture medium was RPMI-1640 (meilunbio, MA0215). After a day of adherent growth of the cells, the compound of the present invention was added as a test drug for culture, and proteins were extracted 24 h later (Ctrl meant adding only DMSO at the same volume).
(§2) In the 6-well plate, the culture medium RPMI-1640 (meilunbio, MA0215) was removed, and the cells were washed once with PBS, digested with trypsin, and centrifuged and collected separately into 1.5 mL centrifuge tubes. 100 μL of RIPA lysis buffer (containing 100 μM PMSF) was added to each tube, mixed thoroughly, allowed to stand on ice for 30 min and then centrifuged at 12000 rpm at 4° C. using a centrifuge for 20 min. The supernatant was used for Western blotting experiments. The sample can be stored at −80° C.
(§3) By using the BCA protein concentration determination kit (from Thermo Fisher, Cat. No. 23225), the BSA standard determination solution and the samples to be tested (the samples to be tested can be diluted and then tested) were prepared according to the table A below. Samples were added to the 96-well plate. Each well was supplemented with PBS to 20 μL, and then 200 μL of BCA working solution (prepared according to the kit) was added respectively and mixed evenly. The plate was placed at 60° C. for 10 min, and then the absorbance at 562 nm was detected. After the reading was recorded, a standard curve was plotted using concentration gradients of the standards, and the absorbance of the samples was substituted to calculate the protein concentration of the samples.
(§4) • 2.1 Protein denaturation: RIPA protein buffer (purchased from Solarbio, Cat. No. R0010) and 5× Loading Buffer (SDS, glycerin, bromophenol blue, TRIS) (purchased from Solarbio, Cat. No. P1040) were added, and the protein samples were denatured at 100° C. for 5 min. • 2.2 Sample loading and electrophoresis: 10% precast gel and the corresponding electrophoresis buffer were used. The same mass of protein sample and protein ladder (purchased from thermo, Cat. No. 26617) were loaded into each well, and electrophoresis at 200 V was performed for 30 min. • 2.3 […]: The gel was excised to remove the excess part. Transferring to PVDF membrane was performed by the wet transfer method (before use, it was necessary to activate the PVDF membrane with methanol for 1 min) at 300 mA for 2 h, during which a lot of heat was generated, and thus cooling with an ice box was required. • 2.4 Blocking: After the transferring, the PVDF membrane was placed in 5% skim milk and blocked with shaking at room temperature for 1 h. • 2.5 Incubating with primary antibody: The PVDF membrane was cut according to the molecular weight indicated on the marker and placed in c-myc (purchased from abcam, Cat. No. ab32072), or GSPT1 (purchased from abcam, Cat. No. ab234433), or CK1α (purchased from abcam, Cat. No. ab206652), or IKZF2 (purchased from proteintech, Cat. No. 13554-1-AP), and GAPDH (purchased from CST, Cat. No. #97166) primary antibodies. The antibodies were diluted with TBST buffer (a solution prepared from TRIS, KCL and NaCl and adjusted to pH 7.4 with hydrochloric acid, and Tween 20 was added) at a ratio of 1:1000, and blocked overnight on a shaker at 4° C. • 2.6 Incubating with secondary antibody: The PVDF membrane incubated with the primary antibody was washed with TBST for 3 times, each time for 10 min. After washing, the membrane was placed in the secondary antibody of the corresponding species, and incubated at room temperature in a shaker for 2 h. • 2.7 Washing membrane and exposure: After incubated with the secondary antibodies, the membrane was washed 3 times with TBST on a shaker, 10 minutes each time. […]
Background: In western blotting, separated proteins are transferred to a membrane and probed.

The target of the next test is T2, GSPT1 protein (Homo sapiens, UniProt P15170).
T2 construct: degradation of myc and GSPT1 proteins in HL60 cells; endogenous in cells; host or cells: HL60
Put plainly: GSPT1 protein degradation in HL60 cells (Western blot). The conditions noted are these: for remaining GSPT1 protein at 0.01 µM: HL-60, compound at 10 nM, 24 h, gray value relative to Ctrl (DMSO), read-out: Remaining amount of GSPT1 protein (@10 nM/Ctrl). Here is the method:
as §1, §2, §3, §4

T2 sequence (P15170 whole entry): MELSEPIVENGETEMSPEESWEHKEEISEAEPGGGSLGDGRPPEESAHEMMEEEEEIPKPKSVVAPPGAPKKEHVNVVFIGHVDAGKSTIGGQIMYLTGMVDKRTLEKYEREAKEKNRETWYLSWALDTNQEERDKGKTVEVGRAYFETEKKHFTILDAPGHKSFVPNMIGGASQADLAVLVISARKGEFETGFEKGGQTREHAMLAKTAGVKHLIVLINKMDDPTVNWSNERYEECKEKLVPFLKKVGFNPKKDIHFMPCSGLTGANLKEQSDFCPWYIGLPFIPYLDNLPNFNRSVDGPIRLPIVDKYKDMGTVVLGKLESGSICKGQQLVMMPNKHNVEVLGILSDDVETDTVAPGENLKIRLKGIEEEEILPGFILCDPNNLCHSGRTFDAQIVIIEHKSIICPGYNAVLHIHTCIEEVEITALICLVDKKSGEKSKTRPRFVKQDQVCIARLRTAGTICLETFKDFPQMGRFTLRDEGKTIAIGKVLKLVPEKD
T1 sequence (P01106 whole entry): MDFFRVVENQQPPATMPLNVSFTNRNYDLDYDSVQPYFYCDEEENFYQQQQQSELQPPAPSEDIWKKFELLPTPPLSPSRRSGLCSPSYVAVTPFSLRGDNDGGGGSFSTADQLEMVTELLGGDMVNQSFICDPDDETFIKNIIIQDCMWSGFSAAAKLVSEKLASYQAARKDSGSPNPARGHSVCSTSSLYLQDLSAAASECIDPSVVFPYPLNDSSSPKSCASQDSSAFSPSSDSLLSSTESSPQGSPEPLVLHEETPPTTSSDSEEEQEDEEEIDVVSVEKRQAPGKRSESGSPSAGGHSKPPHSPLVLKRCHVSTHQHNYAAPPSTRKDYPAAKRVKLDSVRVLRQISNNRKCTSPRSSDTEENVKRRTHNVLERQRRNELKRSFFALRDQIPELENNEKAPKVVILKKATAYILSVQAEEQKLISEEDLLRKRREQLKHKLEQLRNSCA

For the molecule `O=C1C[C@H](N2Cc3cc(CNCC4CCN(c5ncc(-c6cccc(Cl)c6)cc5C(F)(F)F)CC4)ccc3C2=O)C(=O)N1` [Compound A169], the IC50 in the test with HL60 cells came out at 46.3 nM. Besides, on c-Myc protein, the “Degradation of c-Myc protein in HL60 cells at 300 nM (FIG. 2, FIG. 3, in words)” value is “simultaneously degrade both GSPT1 and c-Myc proteins”; the remaining activity at 0.01 µM was found to be 105%. On GSPT1 protein, the “Degradation of GSPT1 protein in HL60 cells at 300 nM (FIG. 2, FIG. 3, in words)” value is “significantly degrade GSPT1 protein” and the remaining GSPT1 protein at 0.01 µM is 65%.
On to `O=C1CCC(N2Cc3cc(CNCC4CCN(c5ncc(-c6cccc(Cl)c6)cc5F)CC4)ccc3C2=O)C(=O)N1` (stereo not drawn) [Compound A73], for which the IC50 in the test on HL60 cells was less than 0.2 nM. In addition, the remaining activity at 0.01 µM on c-Myc protein amounted to 0%. At GSPT1 protein, the remaining GSPT1 protein at 0.01 µM came out at 0%.
For the molecule `O=C1CCC(N2Cc3cc(CNCC4CCN(c5ncc(-c6cccc(Cl)c6)cc5Cl)CC4)ccc3C2=O)C(=O)N1` (stereo not drawn) [Compound A75], in the test with HL60 cells, the IC50 was less than 0.2 nM. Besides, the remaining activity at 0.01 µM on c-Myc protein was 0%. The remaining GSPT1 protein at 0.01 µM at GSPT1 protein turned out to be 0%.
`O=C1CCC(N2Cc3cc(CNCC4CCN(c5cnc(-c6cccc7ccccc67)nc5)CC4)ccc3C2=O)C(=O)N1` (stereo not drawn) [Compound A64]: the IC50 in the test on HL60 cells came to 10 nM. Besides, at c-Myc protein, the remaining activity at 0.01 µM was 0%. The remaining GSPT1 protein at 0.01 µM at GSPT1 protein came to 5%.
For `N#Cc1cc(CNCC2CCN(c3ncc(-c4cccc(Cl)c4)cc3C(F)(F)F)CC2)ccc1C(=O)NC1CCC(=O)NC1=O` (stereo not drawn) [Compound A162], the IC50 with HL60 cells stood at 231 nM. Moreover, the “Degradation of c-Myc protein in HL60 cells at 300 nM (FIG. 2, FIG. 3, in words)” value on c-Myc protein is “simultaneously degrade both GSPT1 and c-Myc proteins”. Moreover, the “Degradation of GSPT1 protein in HL60 cells at 100 nM (FIG. 3, in words)” value at GSPT1 protein (100 nM) was “significantly degrade GSPT1 protein”. Further, at GSPT1 protein, the “Degradation of GSPT1 protein in HL60 cells at 300 nM (FIG. 2, FIG. 3, in words)” value was “simultaneously degrade both GSPT1 and c-Myc proteins”.
On to `Cc1cccc(-c2cnc(N3CCC(F)(CNCc4ccc5c(c4)CN(C4CCC(=O)NC4=O)C5=O)CC3)c(C(F)(F)F)c2)c1` (stereo not drawn) [Compound A85], for which the IC50 in the test on HL60 cells is 1 nM. Besides, the remaining activity at 0.01 µM at c-Myc protein amounted to 8%. For the same molecule, the remaining GSPT1 protein at 0.01 µM at GSPT1 protein came out at 3%.
For `O=C1CC[C@H](N2Cc3cc(CNCC4CCN(c5ncc(-c6cccc(Cl)c6)cc5C(F)(F)F)CC4)ccc3C2=O)C(=O)N1` [Compound A81], in that order: less than 0.2 nM, 0% and 0%.
For `O=C1CCC(N2Cc3cc(CNCC4CCN(c5ncc(-c6ccccc6)cc5C(F)(F)F)CC4)ccc3C2=O)C(=O)N1` (stereo not drawn) [Compound A92], in that order: less than 0.2 nM, 6% and 0%.
On to `Cc1cccc(-c2cnc(N3CCC(CNCc4ccc5c(c4)CN(C4CCC(=O)NC4=O)C5=O)CC3)c(C(F)(F)F)c2)c1` (stereo not drawn) [Compound A94], for which the IC50 with HL60 cells stood at 0.1 nM. The remaining activity at 0.01 µM at c-Myc protein was found to be 0%. Besides, the remaining GSPT1 protein at 0.01 µM on GSPT1 protein is 0%.
With `COC(=O)c1cc(-c2cccc(Cl)c2)cnc1N1CCC(CNCc2ccc3c(c2)CN(C2CCC(=O)NC2=O)C3=O)CC1` (stereo not drawn) [Compound A100], the IC50 in the test on HL60 cells was less than 0.2 nM. Also, the remaining activity at 0.01 µM at c-Myc protein turned out to be 0%. For the same molecule, on GSPT1 protein, the remaining GSPT1 protein at 0.01 µM was found to be 0%.
As to `O=C1CCC(N2Cc3cc(CNCC4CCN(c5ccc(-c6cccc(Cl)c6)cn5)CC4)ccc3C2=O)C(=O)N1` (stereo not drawn) [Compound A70], the IC50 in the test with HL60 cells was less than 0.2 nM. In addition, the remaining activity at 0.01 µM on c-Myc protein is 216%. Further, the remaining GSPT1 protein at 0.01 µM on GSPT1 protein was 23%.
For `O=C1CCC(N2Cc3cc(CNCC4CCN(c5ncc(-c6ccc(F)cc6)cc5F)CC4)ccc3C2=O)C(=O)N1` (stereo not drawn) [Compound A109], in that order: 6.2 nM, 3% and 6%.
